Reference: PMC6413085, “A Validated HPLC-MS/MS Assay for 14-O-[(4,6-Diaminopyrimidine-2-yl)thioacetyl] Mutilin in Biological Samples and Its Pharmacokinetic, Distribution and Excretion via Urine and Feces in Rats” (Molecules, 2019)

Tests used:
[1] = Tissue distribution study in rats; type: in vivo, Sprague-Dawley rats; conditions: rat, 75 mg/kg; for highest level in cecum / highest level in jejunum / highest level in large intestine / highest level in lung / highest level in small intestine: within the first 24 h;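 on highest level in cecum: three values per tissue are for i.v. then i.m. then p.o. dosing in that order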;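 on highest level in jejunum: three values per tissue are for i.v. then i.m. then p.o. dosing in that order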;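 on highest level in large intestine: three values per tissue are for i.v. then i.m. then p.o. dosing in that order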;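 on highest level in lung: three values per tissue are for i.v. then i.m. then p.o. dosing in that order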
Method: We also successfully used the established LC-MS/MS method for detection of the concentration of DPTM in rat tissue homogenates. The quantification of DPTM used the specific standard curves in each corresponding bio-matrix. After i.v., i.m. and p.o. administration of 75 mg/kg DPTM, tissue distribution was investigated at 0.5, 4, 12 and 48 h by collecting the heart, liver, brain, spleen, lung, kidney, large intestine, small intestine, ileum, cecum, bladder, jejunum and colon. Tissue distribution study in rats was performed as described previously. Animals were divided into three groups (n = 12) and DPTM was administered via i.m., i.v. and p.o. with a single dose of 75 mg/kg. A series of heart, liver, spleen, lung, kidney, large intestine, small intestine, ileum, cecum, bladder, brain, jejunum and colon samples were collected before and at 0.5, 4, 12 and 48 h time points after administration and rinsed with phosphate buffer to remove the blood and feces, followed by weighing the wet weight and freezing at −70 °C until analysis. The concentrations of DPTM in rat various tissues were expressed in ng/g and calculated by equation: Ct = Cs × Vs/P, where Ct represented the tissue concentration (ng/g), Cs, Vs and P were the concentration (ng/mL), the volume (mL) and the weight (g) of the tissue samples, respectively.

[2] = Stability of DPTM in plasma, tissue homogenates, urine and feces (QC samples); type: physicochemical, rat
Method: Stability of DPTM and IS was examined by comparing the analytes’ concentrations in freshly prepared samples with those of samples maintained under different conditions, including the 24 h storage at room temperature, three freeze and thaw cycles, and storage at −70 °C for 4 weeks, respectively. Analyzing three levels of QC samples were used to assess the stability (accuracy and precision) with six replicates.
For the construction of calibration curves, 20 μL of each corresponding standard working solution (0.05, 0.2, 0.5, 1, 2, 5, 10, 20 and 40 μg/mL) was evaporated to dryness by nitrogen at 40 °C. The calibration standards (5, 20, 50, 100, 200, 500, 1000, 2000 and 4000 ng/mL) were prepared by adding 200 μL of blank plasma, various tissue homogenates (including heart, liver, spleen, lung, kidney, large intestine, small intestine, ileum, cecum, bladder, brain, jejunum and colon) or urine and feces to the residue, respectively. Quality control (QC) samples (10, 200 and 3000 ng/mL) were obtained by the same way as the calibration standards. All solutions were stored at −70 °C before use for no longer than 4 weeks.

## C=CC1(C)CC(OC(=O)CSc2nc(N)cc(N)n2)C2(C)C(C)CCC3(CCC(=O)C32)C(C)C1O (centres unmarked) [DPTM, 14-O-[(4,6-Diaminopyrimidine-2-yl)thioacetyl] mutilin]
[1]; i.m.
  amount in colon until 48 h: 7849 ± 243 ng/mg
  highest level in cecum: 63404 ± 407 ng/mg
  highest level in jejunum: 12551 ± 432 ng/mg
  highest level in large intestine: 17978 ± 116 ng/mg
  highest level in lung: 15345 ± 579 ng/mg
  highest level in small intestine: 37890 ± 437 ng/mg
[1]; i.v.
  amount in colon until 48 h: 3214 ± 177 ng/mg
  highest level in cecum: 62457 ± 675 ng/mg
  highest level in jejunum: 23543 ± 799 ng/mg
  highest level in large intestine: 31241 ± 355 ng/mg
  highest level in lung: 39411 ± 357 ng/mg
  highest level in small intestine: 26753 ± 690 ng/mg
[1]; p.o.
  amount in colon until 48 h: 22114 ± 215 ng/mg
  highest level in cecum: 31087 ± 452 ng/mg
  highest level in jejunum: 38769 ± 546 ng/mg
  highest level in large intestine: 4123 ± 567 ng/mg
  highest level in lung: 14685 ± 654 ng/mg
  highest level in small intestine: 6743 ± 474 ng/mg
[2]; Bladder, 10 ng/mL, Freeze-thaw Cycles
  Stability RE: 3.9%
[2]; Bladder, 10 ng/mL, Long-term (−70 °C, 4 Weeks)
  Stability RE: 3.6%
[2]; Bladder, 10 ng/mL, Short-term (25 °C, 24 h)
  Stability RE: 4.1%
[2]; Bladder, 200 ng/mL, Freeze-thaw Cycles
  Stability RE: 5.1%
[2]; Bladder, 200 ng/mL, Long-term (−70 °C, 4 Weeks)
  Stability RE: 5.1%
[2]; Bladder, 200 ng/mL, Short-term (25 °C, 24 h)
  Stability RE: 1.9%
[2]; Bladder, 3000 ng/mL, Freeze-thaw Cycles
  Stability RE: 3.5%
[2]; Bladder, 3000 ng/mL, Long-term (−70 °C, 4 Weeks)
  Stability RE: 3.3%
[2]; Bladder, 3000 ng/mL, Short-term (25 °C, 24 h)
  Stability RE: 3.1%
[2]; Brain, 10 ng/mL, Freeze-thaw Cycles
  Stability RE: 4.9%
[2]; Brain, 10 ng/mL, Long-term (−70 °C, 4 Weeks)
  Stability RE: 5.3%
[2]; Brain, 10 ng/mL, Short-term (25 °C, 24 h)
  Stability RE: 1.1%
[2]; Brain, 200 ng/mL, Freeze-thaw Cycles
  Stability RE: 6.5%
[2]; Brain, 200 ng/mL, Long-term (−70 °C, 4 Weeks)
  Stability RE: 6.6%
[2]; Brain, 200 ng/mL, Short-term (25 °C, 24 h)
  Stability RE: 3.3%
[2]; Brain, 3000 ng/mL, Freeze-thaw Cycles
  Stability RE: 4.1%
[2]; Brain, 3000 ng/mL, Long-term (−70 °C, 4 Weeks)
  Stability RE: 4.1%
[2]; Brain, 3000 ng/mL, Short-term (25 °C, 24 h)
  Stability RE: 8.1%
[2]; Cecum, 10 ng/mL, Freeze-thaw Cycles
  Stability RE: 7.2%
[2]; Cecum, 10 ng/mL, Long-term (−70 °C, 4 Weeks)
  Stability RE: 6.4%
[2]; Cecum, 10 ng/mL, Short-term (25 °C, 24 h)
  Stability RE: 6.7%
[2]; Cecum, 200 ng/mL, Freeze-thaw Cycles
  Stability RE: 3.9%
[2]; Cecum, 200 ng/mL, Long-term (−70 °C, 4 Weeks)
  Stability RE: 3.2%
[2]; Cecum, 200 ng/mL, Short-term (25 °C, 24 h)
  Stability RE: 3.1%
[2]; Cecum, 3000 ng/mL, Freeze-thaw Cycles
  Stability RE: −4.9%
[2]; Cecum, 3000 ng/mL, Long-term (−70 °C, 4 Weeks)
  Stability RE: −6.4%
[2]; Cecum, 3000 ng/mL, Short-term (25 °C, 24 h)
  Stability RE: −5.1%
[2]; Colon, 10 ng/mL, Short-term (25 °C, 24 h)
  Stability RE: 5.4%
[2]; Ileum, 10 ng/mL, Freeze-thaw Cycles
  Stability RE: −3.5%
[2]; Ileum, 10 ng/mL, Long-term (−70 °C, 4 Weeks)
  Stability RE: 3.2%
[2]; Ileum, 10 ng/mL, Short-term (25 °C, 24 h)
  Stability RE: 2.9%
[2]; Ileum, 200 ng/mL, Freeze-thaw Cycles
  Stability RE: 5.2%
[2]; Ileum, 200 ng/mL, Long-term (−70 °C, 4 Weeks)
  Stability RE: −5.1%
[2]; Ileum, 200 ng/mL, Short-term (25 °C, 24 h)
  Stability RE: 1.7%
[2]; Ileum, 3000 ng/mL, Freeze-thaw Cycles
  Stability RE: 3.3%
[2]; Ileum, 3000 ng/mL, Long-term (−70 °C, 4 Weeks)
  Stability RE: 3.5%
[2]; Ileum, 3000 ng/mL, Short-term (25 °C, 24 h)
  Stability RE: 3.1%
[2]; Jejunum, 10 ng/mL, Freeze-thaw Cycles
  Stability RE: 6.1%
[2]; Jejunum, 10 ng/mL, Long-term (−70 °C, 4 Weeks)
  Stability RE: 5.6%
[2]; Jejunum, 10 ng/mL, Short-term (25 °C, 24 h)
  Stability RE: 7.2%
[2]; Jejunum, 200 ng/mL, Freeze-thaw Cycles
  Stability RE: 7.3%
